Data taken from publication PMC9137037 (Frontiers in Oncology, 2022).
Where no end group is shown, it is not given here.

Assays:
[1] = tested on: CT26 colon carcinoma cells; assay: CT26 tumor challenge in immunized syngeneic BALB/c mice; assay type: in vivo, mouse
Description: The peptide vaccine MVF-PD-1(92-110) was dissolved in sterile water and mixed with either ISA 720 or ISA 51 (1:1) ratio. We utilized the well-established murine colon carcinoma cell line CT26 tumor model in syngeneic BALB/c mice to evaluate the effects of vaccination previously described ([23]). Briefly, 6–8-week-old female BALB/c mice were immunized with the peptide vaccine, and 2 weeks after the third immunization, the mice were challenged with 1×10^5 CT26 colon cancer cells by subcutaneous injection (SC). The CT26 cancer cell line was maintained in the DMEM medium with 10% FBS 5% CO2 at 37 °C. Phosphate-buffered saline (PBS)-treated mice were set as negative control, while the positive control group mice were treated with an anti-mouse PD-1 monoclonal antibody (clone 29F.1A12; Bio X Cell, West Lebanon, NH, USA) with 200 μg/dose per mouse. Blood was collected biweekly after the primary immunization until 2 weeks after the third immunization. Tumor growth was monitored daily, especially 7 days after the tumor challenge. The mice were euthanized at the end of treatment, and the tumors were extracted and weighed.
The mice in PBS and mAb (29F.1A12) groups, n = 10; group 1 to group 7, n = 8, group 8 n = 7 (one mouse was lost due to a non-immunization related reason before the challenge).
The mice challenged with CT26 tumor cells were monitored at least twice per week and tumor sizes were measured by calipers. The formula, volume (LWW) = (length × width × width)/2, was used to calculate tumor volumes. All values are shown as means ± standard deviation. Data statistical analysis was performed by GraphPad Prism 8.1.2 (GraphPad Software, Inc. San Diego, CA, USA) and the indicated statistical analysis. The percentage of tumor growth inhibition (%TGI) was defined as the difference between the median tumor volume (MTV) of the treatment group with the PBS control group, and the value was calculated by the following formula: %TGI=100*(MTV control − MTV test)/MTV control. The percentage of complete response (CR) was defined as the tumor volume equal to or less than 50 mm^3 for at least 3 consecutive measurements during the study. The log-rank (Mantel−Cox) test was used to compare the percentage of CR in multiple groups. Student’s t-test was used to analyze the difference between the two groups. One-way analysis of variance (one-way ANOVA) followed by the Tukey’s multiple comparison test were used to compare data in multiple groups or data between groups in multiple groups, and the two-way ANOVA was used to analyze the whole curve comparison. The log-rank (Mantel−Cox) test was use to compare the survival curves. A p-value or an adjusted p-value less than 0.05 was accepted as a statistically significant difference.
To verify and confirm the previous immunogenicity studies and antitumor activities of PD-1(92-110) ([23]), 6–8-week-old BALB/c mice were vaccinated with MVF-PD-1(92-110) every 2- or 3- week intervals. Peptide cancer vaccine (100 μg) mixed with ISA 720 (1:1) or ISA 51 (1:1) or nor-MDP 33 μg were used per mice. Mice were boosted with the designed doses of vaccine every 2- or 3-week intervals for a total of 3 vaccine shots. Blood was collected weekly for monitoring antibody titers. After 2 weeks of the third immunization (3Y), mice were challenged with CT26 colon carcinoma cells for 1×10^5 cells per mouse. The tumor growths were monitored and checked daily, especially 7 days post-challenge, and the tumor size was measured with calipers ( Figure 1A ). For the positive control group, we treated the mice with an anti-mouse PD-1 antibody (clone 29F.1A12) twice a week for up to three weeks, while the negative control group was treated with PBS. The mice CT26 tumor model study was separated into 10 different groups, post-challenge treated with PBS as the negative control group or an anti-mouse PD-1 antibody (clone 29F.1A12) as positive control group ( Figure 1B ). Group 1 to group 8 comprised the peptide vaccine treatment groups. […]

cynomolgus monkeys = assay: GLP repeat-dose toxicology, first monkey study No.00213515; assay type: in vivo, Macaca fascicularis
Description: The non-human primate studies were carried out by the Charles River Laboratories (Ashland, OH USA). All the cynomolgus monkeys (Macaca fascicularis of Chinese origin) were obtained from Charles River Laboratories (Houston, TX, USA). In brief, the animals were approximately 2–4 years old and at the body weight between 2.2 and 3.1 kg at the initial dosing. The animals were kept at the temperature between 19°C and 24°C, humidity 30%–70%, and with 12 h light and 12 h dark light cycle. The Good manufacturing practice (GMP)-manufactured vaccine was used in the non-human primate study. […] Similar to mouse and dog dosing preparation, after the emulsion was prepared, a drop test was performed on each time of dosing to confirm that the emulsion had been prepared properly. […] The dose volume was split approximately equally across two different sites; 0.5 ml of the dose was intramuscularly (IM) injected into the right posterior lateral thigh, the left dosing was injected into the left site. All the animals’ body weights were monitored weekly after receiving. After each immunization, the animal body temperature was tested 6 and 24 h post each immunization. […] The animal bleed were collected before each time of immunization to monitor the antibody titers. There were two sets of non-human primate studies conducted. The first set of monkey study No.00213515 had 24 monkeys, 12 males, and 12 females divided into 4 groups: vehicle control, low dose 0.5 mg, medium dose 2 mg, and high dose 5 mg. There were 16 monkeys (8 males and 8 females) in the second set of monkey study No. 00213519. The monkeys in the four groups were vaccinated as follows: vehicle control, low dose 25 μg, medium dose 100 μg, and high dose 250 μg.
In the non-human primate study (#00213515), 24 non-human primates, cynomolgus monkeys, were used. The monkeys were immunized four times (1Y, 2Y, 3Y, and 4Y at days 1, 15, 29, and 43, respectively). Sera were collected at day 1 (pre), day 43, and day 59 ( Figure 4A ). There were four groups and 6 monkeys in each group. Group 1 was the control group, which was treated with only ISA 720 and ddwater. Groups 2, 3, and 4 were peptide PD-1Vaxx treatment groups and were treated with low-dose 0.5 mg/dose, medium-dose […], or high-dose […] peptide vaccine, respectively ( Figure 4B ), emulsified in ISA 720.
These observations were first noted beginning after the second or third dose and were more frequent in female monkeys compared to male monkeys. • b) After the recovery period, all APi2568-related clinical observations had either recovered or were in the process of recovering, with the exception of swollen hind limbs.

KLLSLIKGVIVHRLEGVEGPSLGAISLAPKAQIKESLRAEL [MVF-PD-1(92-110)]
percentage of complete response (CR) ([1]; CR = tumor volume ≤50 mm^3 for at least 3 consecutive measurements, combined immunized groups vs PBS and mAb 29F.1A12, log-rank): higher percentage of complete response | tumor burden vs PBS and vs 29F.1A12 (summary) ([1]; mouse, CT26, Figures 2G, H): PD-1(92) significant less tumor burden vs. PBS, no difference vs. 29F.1A12 ( Figures 2G, H ); | 2-week vs. 3-week immunization interval (summary) ([1]; mouse, CT26, Figures 2G-I): 2-week vs. 3-week no difference ( Figures 2G-I ); | ISA 720 vs ISA 51 (summary) ([1]; mouse, CT26, Figures 2G-I): ISA 720 vs ISA 51 no difference ( Figures 2G-I ); | No nor-MDP vs nor-MDP (summary) ([1]; mouse, CT26, Figures 2G-I): No nor-MDP vs nor-MDP no difference ( Figures 2G-I ); | tumor size (LWW) versus the PBS group ([1]; two-way ANOVA of whole-curve comparison, p-value less than 0.01, majority of the mice): significantly inhibited | no-observed-adverse-effect level (NOAEL) (cynomolgus monkeys; 0.5, 2, 5 mg/dose IM as PD1-Vaxx, male and female cynomolgus monkeys): could not be determined | clinical findings at or near the IM site of dose administration (cynomolgus monkeys; 0.5, 2, and 5 mg/dose groups, first noted after second or third dose, more frequent in females): adverse swelling, ulceration, and/or abscess formation | induction of autoimmune responses (cynomolgus monkeys; cynomolgus monkeys): has not been observed | safety (summary) (cynomolgus monkeys; monkey 1st set): safe
